Test [1] concerns 7D4 mAb (mouse monoclonal anti-prometryn antibody). The test can be described thus: ic-ELISA cross-reactivity of the 7D4 mAb with triazines. Format: binding. To be noted: for Cross-Reactivity: relative to prometryn = 100%. On the procedure: (§1) The ic-ELISA method was used to screen the best-performing fusion mouse sera. They were used to establish the standard curve of antibodies by detecting the supernatant of positive cells. The buffer required for ic-ELISA was the same as previously reported. The specific steps of the operation are as follows: (1) The coated antigen was added to the microplate by diluting it with the required coating solutions (CBS, pH 9.6, 0.05 mol/L). Each well contained 100 µL, which was incubated at 37 °C for three h before being washed three times with washing buffer (PBST, PBS containing 0.1% Tween-20). (2) With sample dilution buffer (PBSTG, PBST containing 0.1% gelatin), the standard prometryn sample and the antiserum/antibody from mice were diluted to the required concentration. The microplate was incubated for 30 min at 37 °C with 50 µL of diluted antiserum or antibody and standard samples of various concentrations. PBST was used three times to wash the dishes. (3) Then, 100 µL of PBSTG-diluent IgG HRP (labeled goat anti-mouse IgG with HRP) was added to each well. After 30 min at 37 °C, the plate was cleaned three times with PBST. (4) Each well was incubated for 15 min in the dark at 25 °C with 100 µL of TMB color developing solution. To stop the reaction, 50 µL of the hydrochloric acid solution was added to each well. The absorbance at OD450 nm was measured with a TECAN Infinite M200 PRO microplate reader from Männedorf, Switzerland.
(§2) The ic-ELISA method was used to determine the ideal antibody and antigen mix. The coating antigen and antibody concentration used in the experiment was 1 mg/mL. The dilution multiples of the coating were 1 × 10^3, 2 × 10^3, 4 × 10^3, and 8 × 10^3. The prometryn standard was 1000 ng/mL. The best concentration combination of antigen and antibody was selected to establish the standard curve of the antibody. Prometryn standards were diluted to 1000, 500, 250, 125, 62.5, 31.25, 15.625, 7.8125, 3.90625, and 0 ng/mL, with PBSTG for subsequent ic-ELISA experiments. The standard curve was determined by ic-ELISA. […] Each measured OD value in the curve is the average of three independent repeats. The 7D4 mAb’s inhibition rate was well linearly correlated with the prometryn concentration. […] The 7D4 mAb type was identified as IgG1 using a mouse antibody isotyping kit from Sigma®, St. Louis, MO, USA.
Eleven triazine herbicides were selected to determine their cross-reactivity with 7D4 mAb. […] The cross-reaction rate with the other seven triazines was less than 1%. The hybridoma cell line 7D4 screened in this study can specifically recognize prometryn. […] The cross-reaction rate may vary depending on the immunoassay format and the competitive hapten preparation used.
A general note: In an ELISA, binding on a coated surface is turned into a signal by an enzyme label.

For the next test, the system named is 7D4 mAb. The test can be described thus: ic-ELISA optimal combination of coated antigen and antibody (Table S3). Format: binding, mouse. The settings on record: prometryn 1000 ng/mL. On the procedure:
as §1, §2

The results in this text go back to PMC9855386, “Obtaining a Monoclonal Antibody against a Novel Prometryn-Like Hapten and Characterization of Its Selectivity for Triazine Herbicides” (Biosensors, 2022).

`CSc1nc(NC(C)C)nc(NC(C)C)n1` [Prometryn, 2-methylthio-4,6-di(isopropylamino)-1,3,5-triazobenzene]: the IC50 in test [1] (ic-ELISA, analyte 1000-15.625 and 0 ng/mL) turned out to be 3.901 ng/mL. The Cross-Reactivity in test [1] and in test [1] (listed as prometryn) was 100% each time. Besides, the “IR (inhibition rate)” value in the test on 7D4 mAb (dilution of immunogen 1×103, dilution of serum 1.6×104) was 94%; in the test on 7D4 mAb (dilution of immunogen 1×103, dilution of serum 2×103), 97%; in the test with 7D4 mAb (dilution of immunogen 1×103, dilution of serum 3.2×104), 92%; with 7D4 mAb (dilution of immunogen 1×103, dilution of serum 4×103) it was 98%; with 7D4 mAb (dilution of immunogen 1×103, dilution of serum 8×103), 97%; in the test with 7D4 mAb (dilution of immunogen 2×103, dilution of serum 1.6×104), 92%. Moreover, the “IR (inhibition rate)” value with 7D4 mAb (dilution of immunogen 2×103, dilution of serum 2×103) was found to be 98%; in the test with 7D4 mAb (dilution of immunogen 2×103, dilution of serum 3.2×104), 85%; in the test on 7D4 mAb (dilution of immunogen 2×103, dilution of serum 4×103), 97%; with 7D4 mAb (dilution of immunogen 2×103, dilution of serum 8×103), 96%; in the test on 7D4 mAb (dilution of immunogen 4×103, dilution of serum 1.6×104), 81%; with 7D4 mAb (dilution of immunogen 4×103, dilution of serum 2×103) it was 97%. Moreover, the “IR (inhibition rate)” value was 71% with 7D4 mAb (dilution of immunogen 4×103, dilution of serum 3.2×104); 95% with 7D4 mAb (dilution of immunogen 4×103, dilution of serum 4×103); 90% in the test on 7D4 mAb (dilution of immunogen 4×103, dilution of serum 8×103); 67% with 7D4 mAb (dilution of immunogen 8×103, dilution of serum 1.6×104); 93% in the test with 7D4 mAb (dilution of immunogen 8×103, dilution of serum 2×103); 55% in the test on 7D4 mAb (dilution of immunogen 8×103, dilution of serum 3.2×104). Also, the “IR (inhibition rate)” value came to 90% in the test on 7D4 mAb (dilution of immunogen 8×103, dilution of serum 4×103) and 82% in the test on 7D4 mAb (dilution of immunogen 8×103, dilution of serum 8×103).

For orientation: IC50 means the midpoint of a concentration-inhibition curve.
